{"source": "paper PMC11123956", "about": "“Nobiletin Stimulates Adrenal Hormones and Modulates the Circadian Clock in Mice” (Nutrients, 2024)", "key": {"[1]": {"system": "PER2::LUC rhythm in peripheral tissues (kidney, liver, submandibular gland)", "test": "In vivo bioluminescence imaging of peripheral PER2::LUC rhythm", "parameters": "species or system mice", "details": "100 mg/kg i.p., 3 days", "experimental": "(§1) Male C57BL/6J mice (7 weeks old) were purchased from Charles River Japan (Kanagawa, Japan) and used for the serum hormone assay and RT-PCR. Male ICR mice were purchased from Tokyo Laboratory Animals Science Co., Ltd. (Tokyo, Japan), and female PERIOD2::LUCIFERASE (PER2::LUC) knock-in mice (ICR background) bred at Waseda University were used for blood glucose measurements and in vivo imaging assays, respectively. The mice were all housed under conditions of controlled temperature (23 °C ± 3 °C), humidity (50% ± 20%), and lighting (lights on from 07:00 to 19:00 at Taisho Pharmaceutical Co., Ltd. or from 08:00 to 20:00 at Waseda University). In the 24 h cycle, Zeitgeber time 0 (ZT0) was designated as the time when the lights were turned on, and ZT12 was designated as the time when the lights were turned off. All the mice were given access to food and tap water ad libitum, and nobiletin (10–100 mg/kg; purchased from FUJIFILM Wako Pure Chemical Corporation, Osaka, Japan) was administered by intraperitoneal (i.p.) injection in the vehicle (10 mL/kg body weight) containing 0.5% carboxymethyl cellulose (CMC). Rolipram (PDE4 inhibitor, FUJIFILM Wako Pure Chemical Corporation) and SR1078 (RORα/γ agonist, FUJIFILM Wako Pure Chemical Corporation) were also used for the experiment at 10 mg/kg in 0.5% CMC [12]. Mice were euthanized by rapid decapitation for whole blood samples.\nAn in vivo imaging system (IVIS) (Caliper Life Sciences, Hopkinton, MA, USA) was used to monitor the PER2::LUC activity rhythm waveform in the peripheral tissues (kidney, liver, and submandibular gland) of the mice. A previously developed protocol and analytical method to monitor bioluminescence oscillations in peripheral tissues was used. Briefly, the mice were anesthetized with isoflurane (FUJIFILM Wako Pure Chemical Corporation, Osaka, Japan) and enriched with oxygen. Mice were anesthetized and injected subcutaneously on the back and near the neck with D-luciferin potassium salt (FUJIFILM Wako Pure Chemical Corporation, Osaka, Japan) at a dose of 15 mg/kg body weight. Images were taken using an IVIS, in the dorsal-up position for the kidney 8 min after injection and in the ventral-up position for the liver and the submandibular gland 10 min after injection. Images were obtained six times/day at 4 h intervals (ZT3, 7, 11, 15, 19, and 23) (Figure 1 and Figure 2). The mice were returned to their home cages after each imaging procedure and quickly recovered from isoflurane anesthesia. Bioluminescence emitted from the kidneys and liver was calculated automatically using Living Image 3.2 software (Caliper Life Sciences). The average photon/min value for the six time points from each day was designated as 100%, and the bioluminescence rhythm for the entire day was expressed as a percentage of each set of six time points for individual organs. The peak phase and amplitude of the normalized data were determined using a single cosinor procedure program (Acro.exe version 3.5 [14]).\nFigure 1 Experimental protocol for in vivo imaging. PER2::LUC female mice were treated with control (0.5% CMC) or nobiletin (100 mg/kg) at the same time points (ZT0, 4, 8, 12, 16, or 20) for three consecutive days, and then measured for peripheral clocks by in vivo whole-body imaging to examine phase–response curves (n = 4–5 in each).\nFigure 2 Time-of-day dependence of peripheral PER2::LUC changes in nobiletin injection. (A) Representative photo images of in vivo PER2::LUC bioluminescence in the kidney, liver, and submandibular gland (sab gla). (B) Waveforms of PER2::LUC rhythm in each tissue at each treatment time. (C,D) Phase–response curves or amplitude–response curves of nobiletin injections in peripheral PER2::LUC rhythm. […]"}, "Per1 mRNA": {"system": "Per1 mRNA", "test": "Real-time RT-PCR of Per1 mRNA in peripheral tissues", "type": "in vivo, mice", "experimental": "as §1\nFigure 3 Nobiletin stimulated adrenaline and corticosterone secretion, and induced acute clock gene expression changes. (A–C) Mice received intraperitoneal injections of control (0.5% CMC) or nobiletin (10 or 100 mg/kg) at ZT3. (A) Serum corticosterone at 1 h after treatment (n = 6 in each). $$$ p < 0.001 by Tukey’s multiple comparisons test. (B) Serum corticosterone and adrenaline at 1, 2, and 4 h after treatment (n = 4 in each). # p < 0.05 vs. control at each time point by Mann–Whitney test; ** p < 0.01 vs. control at each time point by Student’s t-test. (C) Blood glucose changes after treatment (n = 9 in each). Statistics of 2-way repeated ANOVA are indicated on the graph. […]"}, "Per2 mRNA": {"system": "Per2 mRNA", "test": "Real-time RT-PCR of Per2 mRNA in peripheral tissues", "type": "in vivo, mice", "details": "liver, an hour after treatment", "experimental": "as §1, with “samples. […]” for “samples.”"}}}
{"smiles": "COc1ccc(-c2cc(=O)c3c(OC)c(OC)c(OC)c(OC)c3o2)cc1OC", "note": "[nobiletin]", "values": [{"measurement": "amplitude of PER2::LUC rhythm vs control", "setting": "[1]; kidney, liver and submandibular gland (all three tissues), treatment at ZT16", "result": "increased"}, {"measurement": "phase of PER2::LUC rhythm vs control", "setting": "[1]; kidney, administration at ZT4", "result": "phase advancement"}, {"measurement": "amplitude of PER2::LUC rhythm vs control", "setting": "[1]; kidney, treatment at ZT0 or 4", "result": "decreased"}, {"measurement": "phase of PER2::LUC rhythm vs control", "setting": "[1]; kidney, treatment at ZT20", "result": "phase delay"}, {"measurement": "amplitude of PER2::LUC rhythm vs control", "setting": "[1]; liver, treatment at ZT12", "result": "decreased"}, {"measurement": "phase of PER2::LUC rhythm vs control", "setting": "[1]; liver, treatment at ZT12", "result": "phase-advanced"}, {"measurement": "phase of PER2::LUC rhythm vs control", "setting": "[1]; submandibular gland, administration at ZT4", "result": "phase advancement"}, {"measurement": "Per1 mRNA upregulation", "setting": "Per1 mRNA; 4 h after treatment (stomach)", "result": "diminished"}, {"measurement": "Per1 mRNA", "setting": "Per1 mRNA; kidney, liver (1 h) and stomach (2 h) after treatment", "result": "upregulated"}, {"measurement": "Per2 expression", "setting": "Per2 mRNA", "result": "decreased significantly"}]}
